Ten compounds from patent US9067871B2, “Aminotetraline derivatives, pharmaceutical compositions containing them, and their use in therapy” (ABBVIE DEUTSCHLAND GMBH & CO KG, priority 2009, dated 2015) can be followed below.

One assay concerns the target human GlyT1c (Homo sapiens (Human), UniProt P48067). The experiment in a line: [3H]-Glycine uptake into recombinant CHO cells expressing human GlyT1. As to conditions: hGlyT1c_5_CHO cells, 200 nM [3H]-glycine. It counts as cell-based. In a few lines: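 Recombinant CHO cells stably expressing hGlyT1c, grown 24 h to sub-confluency on scintillating plates, given inhibitor or vehicle plus 200 nM (final) [3H]-glycine in HBSS. Uptake counted continuously by solid-phase scintillation for up to 3 h; nonspecific uptake defined with 10 μM Org24598.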

In the next assay the target is human GlyT1c transporter (Homo sapiens (Human), UniProt P48067). Description: Radioligand binding assay using recombinant CHO cell membranes expressing human GlyT1. As to conditions: human GlyT1c-expressing CHO cell membranes; read-out: radioligand binding Kiapp. An excerpt: 2. Radioligand binding assays using recombinant CHO cell membranes expressing human GlyT1: […]
human GlyT1c transporter, sequence (P48067 whole entry): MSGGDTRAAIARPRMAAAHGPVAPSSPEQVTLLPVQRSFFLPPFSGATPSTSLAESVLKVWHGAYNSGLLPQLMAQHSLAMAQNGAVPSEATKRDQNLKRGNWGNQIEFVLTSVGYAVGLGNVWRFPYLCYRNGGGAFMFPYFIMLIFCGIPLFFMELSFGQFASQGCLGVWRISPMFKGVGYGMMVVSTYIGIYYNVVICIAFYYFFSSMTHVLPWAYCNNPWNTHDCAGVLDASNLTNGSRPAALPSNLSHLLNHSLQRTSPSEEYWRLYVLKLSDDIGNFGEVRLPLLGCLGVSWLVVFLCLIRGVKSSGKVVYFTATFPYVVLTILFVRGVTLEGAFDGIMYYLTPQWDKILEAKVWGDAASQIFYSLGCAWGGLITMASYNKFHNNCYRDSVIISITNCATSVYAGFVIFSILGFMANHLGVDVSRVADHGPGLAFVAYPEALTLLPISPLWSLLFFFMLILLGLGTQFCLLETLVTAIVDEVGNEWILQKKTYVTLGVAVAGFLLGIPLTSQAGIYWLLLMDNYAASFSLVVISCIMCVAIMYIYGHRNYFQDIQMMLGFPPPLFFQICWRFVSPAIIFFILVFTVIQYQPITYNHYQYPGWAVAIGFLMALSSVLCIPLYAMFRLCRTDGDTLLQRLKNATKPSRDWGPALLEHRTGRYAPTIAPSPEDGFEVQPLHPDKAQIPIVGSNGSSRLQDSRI

pIC50, pKi: −log10 of the molar value. Structures can show the parent of a compound that is named as a salt.

human GlyT1c, sequence (P48067 whole entry): as above

Consider `Cc1ccc(S(=O)(=O)NCCOc2ccc3c(c2)C(Cc2cccc(Cl)c2)C(N)CC3)s1` (centres unmarked) [Example 68, 5-Methyl-thiophene-2-sulfonic acid {2-[7-amino-8-(3-chloro-benzyl)-5,6,7,8-tetrahydronaphthalen-2-yloxy]-ethyl}-amide hydrochloride], for which the pIC50 on human GlyT1c is at least 5.00. At human GlyT1c transporter, the pKi was at least 6.00.

Turning to `Cc1csc(S(=O)(=O)NCCOc2ccc3c(c2)C(Cc2cccc(Cl)c2)C(N)CC3)c1` (centres unmarked) [Example 67, 4-Methyl-thiophene-2-sulfonic acid {2-[7-amino-8-(3-chloro-benzyl)-5,6,7,8-tetrahydronaphthalen-2-yloxy]-ethyl}-amide hydrochloride], the pIC50 at human GlyT1c is at least 6.00. On human GlyT1c transporter, the pKi is at least 7.00.

For `CCCS(=O)(=O)NCc1ccc2c(c1)C(Cc1ccc(Cl)c(Cl)c1)C(NC(=O)OC(C)(C)C)CC2` (centres unmarked) [Example 39, tert-Butyl[1-(3,4-dichlorobenzyl)-7-{[(propylsulfonyl)amino]methyl}-1,2,3,4-tetrahydronaphthalen-2-yl]carbamate], the pIC50 at human GlyT1c was at least 3.00. On human GlyT1c transporter, the pKi is at least 5.00.

Consider `NC1CCc2ccc(OCCNS(=O)(=O)c3cccs3)cc2C1Cc1cccc(Cl)c1` (centres unmarked) [Example 56, Thiophene-2-sulfonic acid {2-[7-amino-8-(3-chloro-benzyl)-5,6,7,8-tetrahydro-naphthalen-2-yloxy]-ethyl}-amide], for which the pIC50 at human GlyT1c was at least 6.00. Besides, the pKi on human GlyT1c transporter is at least 7.00.

Consider `CCCS(=O)(=O)N(C)CCOc1ccc2c(c1)C(Cc1ccc(Cl)c(Cl)c1)C(N)CC2` (centres unmarked) [Example 11, N-(2-(7-Amino-8-(3,4-dichlorobenzyl)-5,6,7,8-tetrahydronaphthalen-2-yloxy)ethyl)-N-methylpropane-1-sulfonamide hydrochloride], for which the negative-log IC50 (pIC50) on human GlyT1c was at least 6.00. Further, at human GlyT1c transporter, the pKi was at least 7.00.

With `CCNC1CCc2ccc(OCCNS(=O)(=O)c3cn(C)cn3)cc2C1Cc1ccc(Cl)c(Cl)c1` (centres unmarked) [Example 23, 1-Methyl-1H-imidazole-4-sulfonic acid {2-[8-(3,4-dichloro-benzyl)-7-ethylamino-5,6,7,8-tetrahydro-naphthalen-2-yloxy]-ethyl}-amide], the pIC50 at human GlyT1c was at least 4.00. Besides, the pKi on human GlyT1c transporter was at least 5.00.

With `Cn1cnc(S(=O)(=O)NCCOc2ccc3c(c2)C(Cc2ccc(Cl)cc2)C(N)CC3)c1` (centres unmarked) [Example 27, 1-Methyl-1H-imidazole-4-sulfonic acid {2-[7-amino-8-(4-chloro-benzyl)-5,6,7,8-tetrahydronaphthalen-2-yloxy]-ethyl}-amide hydrochloride], the pIC50 on human GlyT1c is at least 8.00. In addition, the pKi on human GlyT1c transporter was at least 8.00.

As to `CCOC(=O)NC1CCc2ccc(OCCNS(=O)(=O)c3cnn(C(F)F)c3)cc2C1Cc1cccc(Cl)c1` (centres unmarked) [Example 81, {1-(3-Chloro-benzyl)-7-[2-(1-difluoromethyl-1H-pyrazole-4-sulfonylamino)-ethoxy]-1,2,3,4-tetrahydro-naphthalen-2-yl}-carbamic acid ethyl ester], at human GlyT1c, the pIC50 is at most 3.00. At human GlyT1c transporter, the pKi was at least 5.00.

In the case of `NC1CCc2ccc(OC(F)F)cc2C1Cc1ccc(Cl)cc1` (centres unmarked) [Example 36, 1-(4-chlorobenzyl)-7-(difluoromethoxy)-1,2,3,4-tetrahydronaphthalen-2-amine hydrochloride], on human GlyT1c, the pIC50 is at least 5.00. Further, the pKi at human GlyT1c transporter is at least 4.00.

`Cn1cnc(S(=O)(=O)NCCOc2ccc3c(c2)C(Cc2cccc(Cl)c2)C(N)CC3)c1` (centres unmarked) [Example 48, 1-Methyl-1H-imidazole-4-sulfonic acid {2-[7-amino-8-(3-chloro-benzyl)-5,6,7,8-tetrahydronaphthalen-2-yloxy]-ethyl}-amide hydrochloride]: the pIC50 at human GlyT1c is at least 8.00. At human GlyT1c transporter, the pKi is at least 8.00.
